# Tested on: multiresistant Dd2 strain of Plasmodium falciparum
# Assay: Antiplasmodial activity against Dd2 strain of Plasmodium falciparum ([8-3H]hypoxanthine incorporation)
# Format: cell-based
# Conditions: 66 h, P. falciparum Dd2, 48 h + 18 h with [8-3H]hypoxanthine, 50% parasite growth inhibition, read-out: Antiplasmodia activity (IC50 class)
# Description: For the determination of the antiplasmodial activity of the compounds described above, the multiresistant Dd2 strain of Plasmodium falciparum was used. The incorporation of [8-^3H]hypoxanthine into the parasitic nucleic acids was measured. The plasmodia were incubated at 0.3% parasitaemia and an erythrocyte haematocrit of 2.5% in the presence of different concentrations of the compounds in a final volume of 200 μl. The medium employed was RPMI 1640 which contained 10% of heat-treated human serum and 3 mg/l of gentamycin. In the incubations, the concentrations of the compounds varied from 0.001 to 100 μM. After 48 h, each batch was treated with 50 μl of [8-^3H]hypoxanthine (1 mCi/ml) and incubated for a further 18 h. The cells were filtered off, washed and suspended in 20 μl of scintillation fluid. The radioactive hypoxanthine absorbed by the parasites was then quantified using a scintillation counter. The results were presented graphically and the IC50 value was determined using a fitting function. The value IC50, the ‘inhibition constant’, indicates the value in μMol/l at which 50% parasite growth inhibition occurs (R. E. Desjardins, et al., Antimicrobiol. Agent Chemother. 16, pp. 710-718, 1979; J. D. Chulay, et al., Exp. Parasitol. 55, pp. 138-146, 1983).
row,Structure (SMILES),IC50 [nM]
1,"N=C(c1cccc(NC(=O)Nc2ccc(S(N)(=O)=O)cc2)c1)N1CCC(O)CC1 [Compound 2, 4-(3-(3-((4-hydroxypiperidin-1-yl)(imino)methyl)phenyl)ureido)benzenesulfonamide]",≥ 1000
2,"N=C(c1cccc(NC(=O)Nc2ccc(S(N)(=O)=O)cc2)c1)N1CCNCC1 [Compound 3, 4-(3-(3-(imino(piperazin-1-yl)methyl)phenyl)ureido)benzenesulfonamide]",≥ 1000
3,"CCCCN1CCN(C(=N)c2cccc(NC(=O)Nc3ccc(S(=O)(=O)c4ccc(Br)cc4)cc3)c2)CC1 [Compound 4, 1-(4-(4-bromophenylsulfonyl)phenyl)-3-(3-((4-butylpiperazin-1-yl)(imino)methyl)phenyl)urea]",210 to 990
4,"N=C(c1cccc(NC(=O)Nc2ccc(S(=O)(=O)c3ccc(Br)cc3)cc2)c1)N1CCC(O)CC1 [Compound 5, 1-(4-(4-bromophenylsulfonyl)phenyl)-3-(3-((4-hydroxypiperidin-1-yl)(imino)methyl)phenyl)urea]",20 to 200
5,"N=C(c1cccc(NC(=O)Nc2ccc(S(=O)(=O)c3ccc([N+](=O)[O-])cc3)cc2)c1)N1CCOCC1 [Compound 6, 1-(3-(imino(morpholino)methyl)phenyl)-3-(4-(4-nitrophenylsulfonyl)phenyl)urea]",20 to 200
6,"N=C(c1cccc(NC(=O)Nc2ccc(S(=O)(=O)c3ccc([N+](=O)[O-])cc3)cc2)c1)N1CCCC1 [Compound 7, 1-(3-(imino(pyrrolidin-1-yl)methyl)phenyl)-3-(4-(4-nitrophenylsulfonyl)phenyl)urea]",20 to 200
7,"CN1CCN(C(=N)c2cccc(NC(=O)Nc3ccc(S(=O)(=O)c4ccc([N+](=O)[O-])cc4)cc3)c2)CC1 [Compound 8, 1-(3-(imino(4-methylpiperazin-1-yl)methyl)phenyl)-3-(4-(4-nitrophenylsulfonyl)phenyl)urea]",≥ 1000
8,"N=C(c1cccc(NC(=O)Nc2ccc(S(=O)(=O)c3ccc([N+](=O)[O-])cc3)cc2)c1)N1CCSC1 [Compound 9, 1-(3-(imino(thiazolidin-3-yl)methyl)phenyl)-3-(4-(4-nitrophenylsulfonyl)phenyl)urea]",≥ 1000
9,"N=C(c1cccc(NC(=O)Nc2ccc(S(=O)(=O)c3ccc([N+](=O)[O-])cc3)cc2)c1)N1CCC(O)CC1 [Compound 10, 1-(3-((4-hydroxypiperidin-1-yl)(imino)methyl)phenyl)-3-(4-(4-nitrophenylsulfonyl)phenyl)urea]",20 to 200
10,"N=C(c1cccc(NC(=O)Nc2ccc(S(=O)(=O)c3ccc(Cl)cc3)cc2)c1)N1CCC(O)CC1 [Compound 11, 1-(4-(4-chlorophenylsulfonyl)phenyl)-3-(3-((4-hydroxypiperidin-1-yl)(imino)methyl)phenyl)urea]",20 to 200
11,"N=C(c1cccc(NC(=O)Nc2ccc(S(=O)(=O)c3ccc(Br)cc3)cc2)c1)N1CCC(CO)CC1 [Compound 12, 1-(4-(4-bromophenylsulfonyl)phenyl)-3-(3-((4-(hydroxymethyl)piperidin-1-yl)(imino)methyl)phenyl)urea]",≥ 1000
12,"COCCN(CCOC)C(=N)c1cccc(NC(=O)Nc2ccc(S(=O)(=O)c3ccc(Br)cc3)cc2)c1 [Compound 13, 3-(3-(4-(4-bromophenylsulfonyl)phenyl)ureido)-N,N-bis(2-methoxyethyl)benzimidamide]",≥ 1000
13,"N=C(c1cccc(NC(=O)Nc2ccc(S(=O)(=O)c3ccc(Br)cc3)cc2)c1)N1CCSCC1 [Compound 14, 1-(4-(4-bromophenylsulfonyl)phenyl)-3-(3-(imino(thiomorpholino)methyl)phenyl)urea]",20 to 200
14,"N=C(c1cccc(NC(=O)Nc2ccc(S(=O)(=O)c3ccc(Br)cc3)cc2)c1)N1CCCC1 [Compound 15, 1-(4-(4-bromophenylsulfonyl)phenyl)-3-(3-(imino(pyrrolidin-1-yl)methyl)phenyl)urea]",20 to 200
15,"N=C(c1cccc(NC(=O)Nc2ccc(S(=O)(=O)c3ccc(Br)cc3)cc2)c1)N1CCC(C(N)=O)CC1 [Compound 16, 1-((3-(3-(4-(4-bromophenylsulfonyl)phenyl)ureido)phenyl)(imino)methyl)piperidine-4-carboxamide]",20 to 200
16,"N=C(c1cccc(NC(=O)Nc2ccc(S(=O)(=O)c3ccc(N)cc3)cc2)c1)N1CCC(O)CC1 [Compound 17, 1-(4-(4-aminophenylsulfonyl)phenyl)-3-(3-((4-hydroxypiperidin-1-yl)(imino)methyl)phenyl)urea]",≥ 1000

row,Structure (SMILES),IC50 [nM]
1,"CCCCN1CCN(C(=N)c2cccc(NC(=O)Nc3ccc(S(=O)(=O)NC)cc3)c2)CC1 [Compound 18, 4-(3-(3-((4-butylpiperazin-1-yl)(imino)methyl)phenyl)ureido)-N-methylbenzenesulfonamide]",≥ 1000
2,"CCCCN1CCN(C(=N)c2cccc(NC(=O)Nc3ccc(S(=O)(=O)NCCC)cc3)c2)CC1 [Compound 19, 4-(3-(3-((4-butylpiperazin-1-yl)(imino)methyl)phenyl)ureido)-N-propylbenzenesulfonamide]",≥ 1000
3,"CCCCN1CCN(C(=N)c2cccc(NC(=O)Nc3ccc(S(=O)(=O)N(CCO)CCO)cc3)c2)CC1 [Compound 20, 4-(3-(3-((4-butylpiperazin-1-yl)(imino)methyl)phenyl)ureido)-N,N-bis(2-hydroxyethyl)benzenesulfonamide]",≥ 1000
4,"CCCCN1CCN(C(=N)c2cccc(NC(=O)Nc3ccc(S(=O)(=O)N4CCOCC4)cc3)c2)CC1 [Compound 21, 1-(3-((4-butylpiperazin-1-yl)(imino)methyl)phenyl)-3-(4-(morpholinosulfonyl)phenyl)urea]",≥ 1000
5,"CCCCN1CCN(C(=N)c2cccc(NC(=O)Nc3ccc(S(=O)(=O)Nc4ccnc5cc(Cl)ccc45)cc3)c2)CC1 [Compound 22, 4-(3-(3-((4-butylpiperazin-1-yl)(imino)methyl)phenyl)ureido)-N-(7-chloroquinolin-4-yl)benzenesulfonamide]",≥ 1000
6,"COC(=O)N1CCN(C(=N)c2cccc(NC(=O)Nc3ccc(S(=O)(=O)Nc4ccc(S(N)(=O)=O)cc4)cc3)c2)CC1 [Compound 24, methyl 4-(imino(3-(3-(4-(N-(4-sulfamoylphenyl)sulfamoyl)phenyl)ureido)phenyl)methyl)piperazine-1-carboxylate]",≥ 1000
7,"N=C(c1cccc(NC(=O)Nc2ccc(S(=O)(=O)Nc3ccc(S(N)(=O)=O)cc3)cc2)c1)N1CCOCC1 [Compound 25, 4-(3-(3-(imino(morpholino)methyl)phenyl)ureido)-N-(4-sulfamoylphenyl)benzenesulfonamide]",≥ 1000
8,"CN1CCN(C(=N)c2cccc(NC(=O)Nc3ccc(S(=O)(=O)Nc4ccc(S(N)(=O)=O)cc4)cc3)c2)CC1 [Compound 26, 4-(3-(3-(imino(4-methylpiperazin-1-yl)methyl)phenyl)ureido)-N-(4-sulfamoylphenyl)benzenesulfonamide]",≥ 1000
9,"N=C(c1cccc(NC(=O)Nc2ccc(S(=O)(=O)NCc3ccc(S(N)(=O)=O)cc3)cc2)c1)N1CCC(=O)CC1 [Compound 27, 4-(3-(3-(imino(4-oxopiperidin-1-yl)methyl)phenyl)ureido)-N-(4-sulfamoylbenzyl)benzenesulfonamide]",210 to 990
10,"N=C(c1cccc(NC(=O)Nc2ccc(S(=O)(=O)NCc3ccc(S(N)(=O)=O)cc3)cc2)c1)N1CCN(CCO)CC1 [Compound 28, 4-(3-(3-((4-(2-hydroxyethyl)piperazin-1-yl)(imino)methyl)phenyl)ureido)-N-(4-sulfamoylbenzyl)benzenesulfonamide]",20 to 200
11,"N=C(c1cccc(NC(=O)Nc2ccc(S(=O)(=O)NCc3ccc(S(N)(=O)=O)cc3)cc2)c1)N1CCC(CO)CC1 [Compound 29, 4-(3-(3-((4-(hydroxymethyl)piperidin-1-yl)(imino)methyl)phenyl)ureido)-N-(4-sulfamoylbenzyl)benzenesulfonamide]",210 to 990
12,"CCN(CCO)C(=N)c1cccc(NC(=O)Nc2ccc(S(=O)(=O)NCc3ccc(S(N)(=O)=O)cc3)cc2)c1 [Compound 30, N-ethyl-N-(2-hydroxyethyl)-3-(3-(4-(N-(4-sulfamoylbenzyl)sulfamoyl)phenyl)ureido)benzimidamide]",210 to 990
13,"N=C(c1cccc(NC(=O)Nc2ccc(S(=O)(=O)NCc3ccc(S(N)(=O)=O)cc3)cc2)c1)N1CCSCC1 [Compound 31, 4-(3-(3-(imino(thiomorpholino)methyl)phenyl)ureido)-N-(4-sulfamoylbenzyl)benzenesulfonamide]",210 to 990
14,"COCCN(CCOC)C(=N)c1cccc(NC(=O)Nc2ccc(S(=O)(=O)NCc3ccc(S(N)(=O)=O)cc3)cc2)c1 [Compound 32, N,N-bis(2-methoxyethyl)-3-(3-(4-(N-(4-sulfamoylbenzyl)sulfamoyl)phenyl)ureido)benzimidamide]",210 to 990
15,"N=C(c1cccc(NC(=O)Nc2ccc(S(=O)(=O)NCc3ccc(S(N)(=O)=O)cc3)cc2)c1)N1CCC(C(N)=O)CC1 [Compound 33, 1-(imino(3-(3-(4-(N-(4-sulfamoylbenzyl)sulfamoyl)-phenyl)ureido)phenyl)methyl)piperidine-4-carboxamide]",20 to 200
16,"CCCCN1CCN(C(=N)c2cccc(NC(=O)Nc3ccc(S(=O)(=O)NCc4c(F)ccc(F)c4F)cc3)c2)CC1 [Compound 35, 4-(3-(3-((4-butylpiperazin-1-yl)(imino)methyl)phenyl)ureido)-N-(2,3,6-trifluorobenzyl)benzenesulfonamide]",210 to 990

# — US8343963B2, “Sulfamoyl-phenyl-ureido compounds and their use as medicament” (4SC AG, priority 2009, dated 2013)
